Reference: patent publication US20040010001A1, “Methods and compositions for modulating cell proliferation and cell death” (priority 1999, published 2004)
Read-outs that look alike come from different tables or passages of the source.

How the values were obtained:
Type in all cases: cell-based
[1] = system: rat primary tumors, histocultures; assay: Drug effect in histocultures of rat primary tumors (inhibition of 3H-thymidine incorporation)
[2] = system: rat lymph node metastasis cells, monolayers; assay: Drug effect in monolayers of rat lymph node metastasis cells (inhibition of bromodeoxyuridine incorporation); conditions: 96 h, read-out: Concentration producing 50% inhibition
[3] = system: rat lung metastasis cells, monolayers; assay: Drug effect in monolayers of rat lung metastasis cells (inhibition of bromodeoxyuridine incorporation); conditions: 96 h, read-out: Concentration producing 50% inhibition
[4] = system: Human breast BC19 (subline of MCF7 transfected with mdr1); assay: FGF-induced resistance, inhibition of BrdU incorporation; conditions: read-out: Drug concentration needed to produce 50% inhibition
Method: (§1) Prior to drug treatment, cells were incubated for 4 days with tumor CM or with r-aFGF ad/or r-bFGF-containing medium, supplemented with 1% FBS (final protein concentration adjusted to 2 mg/ml). The medium was renewed every other day.
(§2) The antiproliferative drug effect in histocultures was measured as inhibition of ^3H-thymidine incorporation quantified by autoradiography (Yen, W. C. et al. (1996) Pharm. Res. 13:1305-1312) and, for monolayers, as inhibition of BrdU incorporation or as reduction of total proteins by the sulforhodamine B assay (Au, J. L.-S. et al. (1998) Cancer Res. 58:2141-2148). For the latter, the two assays yielded qualitatively similar results. Cell kill induced by 96-hour drug treatment was monitored by the release of LDH into the culture medium. LDH activity was monitored by the conversion of tetrazolium to formazan (detected at 490 nm).
(§3) The experimental conditions are described briefly below. Cells were pretreated with human recombinant r-aFGF and/or r-bFGF for 96 hours and then with drugs for 96 hours. For the studies on cells derived from the human prostate, lung, pharynx, colon and breast cancer cells, the drug effect was determined by the inhibition of BrdU incorporation. For the study on the human leukemic cells, the drug effect was measured by the MTT assay, which measures the number of metabolically active cells (Alley, M. C. et al (1988) Cancer Res 48:589-601).

Human breast MCF7 = assay: as above; conditions: read-out: Drug concentration needed to produce 50% inhibition
Method: as §1, §2, §3

Human colon HT-29 = assay: as above; conditions: read-out: Drug concentration needed to produce 50% inhibition
Method: as §1, §2, §3

Human lung A459 = assay: as above; conditions: read-out: Drug concentration needed to produce 50% inhibition
Method: as §1, §2, §3

Human pharynx FaDu = assay: as above; conditions: read-out: Drug concentration needed to produce 50% inhibition
Method: as §1, §2, §3

Human prostate PC3 = assay: as above; conditions: Homo sapiens, read-out: Drug concentration needed to produce 50% inhibition
Method: as §1, §2, §3

Rat prostate MAT-LyLu = assay: as above; conditions: read-out: Drug concentration needed to produce 50% inhibition
Method: as §1, §2, §3

[5] = 96 h, r-aFGF + r-bFGF 0.04 ± 1 ng/ml
[6] = 96 h, r-aFGF + r-bFGF 0.08 ± 1 ng/ml
[7] = 96 h, r-aFGF + r-bFGF 0.64 ± 1 ng/ml
[8] = 96 h, r-aFGF + r-bFGF 1 ± 1 ng/ml

IC50 ([2]; Monolayers (passage 0)): 32.9 ± 3.6 nM
IC50 ([2]; Monolayers (passage 1)): 21.8 ± 0.9 nM
IC50 ([2]; Monolayers (passage 2)): 15 ± 0.9 nM
IC50 ([2]; Monolayers (passage 3)): 11.7 ± 0.3 nM
IC50 ([3]; Monolayers (passage 0)): 92.4 ± 6.9 nM
IC50 ([3]; Monolayers (passage 1)): 28.1 ± 0.7 nM
IC50 ([3]; Monolayers (passage 2)): 21.5 ± 3.7 nM
IC50 ([3]; Monolayers (passage 3)): 11.4 ± 0.7 nM
IC50 ([4]; r-bFGF 0 ng/ml): 59.6 nM
IC50 ([4]; r-bFGF 0.01 ng/ml): 112 nM
IC50 ([4]; r-bFGF 0.1 ng/ml): 183 nM
IC50 ([4]; r-bFGF 1 ng/ml): 236 nM
IC50 (Human breast MCF7; MCF7, r-bFGF 0 ng/ml): 0.32 nM
IC50 (Human breast MCF7; MCF7, r-bFGF 0.01 ng/ml): 0.45 nM
IC50 (Human breast MCF7; MCF7, r-bFGF 0.1 ng/ml): 0.84 nM
IC50 (Human breast MCF7; MCF7, r-bFGF 1 ng/ml): 1.3 nM
IC50 (Human colon HT-29; HT-29, 96 h, r-aFGF + r-bFGF 0 ng/ml): 2.2 nM
IC50 (Human colon HT-29; HT-29, 96 h, r-aFGF + r-bFGF 0.04 ± 1 ng/ml): 2 nM
IC50 (Human colon HT-29; HT-29, 96 h, r-aFGF + r-bFGF 0.08 ± 1 ng/ml): 2 nM
IC50 (Human colon HT-29; HT-29, 96 h, r-aFGF + r-bFGF 0.16 ± 1 ng/ml): 2.1 nM
IC50 (Human colon HT-29; HT-29, 96 h, r-aFGF + r-bFGF 0.64 ± 1 ng/ml): 6.2 nM
IC50 (Human colon HT-29; HT-29, r-aFGF 0 ng/ml): 2.1 nM
IC50 (Human colon HT-29; HT-29, r-aFGF 1 ng/ml): 2 nM
IC50 (Human colon HT-29; HT-29, r-aFGF 10 ng/ml): 1.9 nM
IC50 (Human colon HT-29; HT-29, r-aFGF 50 ng/ml): 2 nM
IC50 (Human colon HT-29; HT-29, r-aFGF + r-bFGF 1 ± 1 ng/ml): 10.8 nM
IC50 (Human colon HT-29; HT-29, r-bFGF 0 ng/ml): 2.1 nM
IC50 (Human colon HT-29; HT-29, r-bFGF 1 ng/ml): 2 nM
IC50 (Human colon HT-29; HT-29, r-bFGF 10 ng/ml): 1.9 nM
IC50 (Human colon HT-29; HT-29, r-bFGF 50 ng/ml): 2 nM
IC50 (Human lung A459; A459, r-bFGF 0 ng/ml): 0.87 nM
IC50 (Human lung A459; A459, r-bFGF 1 ng/ml): 0.9 nM
IC50 (Human lung A459; A459, r-bFGF 10 ng/ml): 1.07 nM
IC50 (Human lung A459; A459, r-bFGF 50 ng/ml): 1.22 nM
IC50 (Human pharynx FaDu; 96 h, r-aFGF + r-bFGF 0 ng/ml): 0.82 nM
IC50 (Human pharynx FaDu; [5]): 0.84 nM
IC50 (Human pharynx FaDu; [6]): 0.82 nM
IC50 (Human pharynx FaDu; 96 h, r-aFGF + r-bFGF 0.16 ± 1 ng/ml): 0.81 nM
IC50 (Human pharynx FaDu; 96 h, r-aFGF + r-bFGF 0.32 ± 1 ng/ml): 0.84 nM
IC50 (Human pharynx FaDu; [7]): 2.01 nM
IC50 (Human pharynx FaDu; [8]): 3.5 nM
IC50 (Human pharynx FaDu; r-aFGF 0 ng/ml): 0.82 nM
IC50 (Human pharynx FaDu; r-aFGF 1 ng/ml): 0.8 nM
IC50 (Human pharynx FaDu; r-aFGF 10 ng/ml): 0.82 nM
IC50 (Human pharynx FaDu; r-aFGF 50 ng/ml): 0.83 nM
IC50 (Human pharynx FaDu; r-bFGF 0 ng/ml): 0.77 nM
IC50 (Human pharynx FaDu; r-bFGF 1 ng/ml): 0.79 nM
IC50 (Human pharynx FaDu; r-bFGF 10 ng/ml): 0.74 nM
IC50 (Human pharynx FaDu; r-bFGF 50 ng/ml): 0.82 nM
IC50 (Human prostate PC3; 96 h, r-aFGF + r-bFGF 0 ng/ml): 1.2 nM
IC50 (Human prostate PC3; [5]): 1.2 nM
IC50 (Human prostate PC3; [6]): 2.1 nM
IC50 (Human prostate PC3; [7]): 5.8 nM
IC50 (Human prostate PC3; [8]): 6.9 nM
IC50 (Human prostate PC3; 96 h, r-aFGF + r-bFGF): 3.1 nM
IC50 (Human prostate PC3; r-aFGF 0 ng/ml): 1.2 nM
IC50 (Human prostate PC3; r-aFGF 1 ng/ml): 1.2 nM
IC50 (Human prostate PC3; r-aFGF 10 ng/ml): 1.1 nM
IC50 (Human prostate PC3; r-aFGF 50 ng/ml): 1.2 nM
IC50 (Human prostate PC3; r-bFGF 0 ng/ml): 1.2 nM
IC50 (Human prostate PC3; r-bFGF 1 ng/ml): 1.2 nM
IC50 (Human prostate PC3; r-bFGF 10 ng/ml): 2.1 nM
IC50 (Human prostate PC3; r-bFGF 50 ng/ml): 3.3 nM
IC50 (Rat prostate MAT-LyLu; r-bFGF 0 ng/ml): 12.7 nM
IC50 (Rat prostate MAT-LyLu; r-bFGF 1 ng/ml): 16.3 nM
IC50 (Rat prostate MAT-LyLu; r-bFGF 10 ng/ml): 47.8 nM
IC50 (Rat prostate MAT-LyLu; r-bFGF 50 ng/ml): 214 nM
SMILES: CC(=O)O[C@H]1C(=O)[C@@]2(C)[C@H]([C@H](OC(=O)c3ccccc3)[C@]3(O)C[C@H](OC(=O)[C@H](O)[C@@H](NC(=O)c4ccccc4)c4ccccc4)C(C)=C1C3(C)C)[C@]1(OC(C)=O)CO[C@@H]1C[C@@H]2O [Paclitaxel]
inhibition at 10 µM [1]: < 50%
IC30 (concentration producing 30% inhibition) ([1]; 24 h, read-out: Concentration producing 50% inhibition (data shown are the concentrations that produced 30% inhibition)): > 14 nM
